According to patent US20090232748A1 (ViraTox, L.L.C., priority 2003, published 2009):
Read-outs that look alike come from different tables or passages of the source.

Columns and labels:
[1] = tested on: Feline Infectious Peritonitis Type 2 (“FIP Type 2”) corona virus; assay: Virucidal bioassay: FIP-2 corona virus suspension exposed to test article, then titrated in CrFK cell culture (TCID50, Reed and Muench); format: cell-based, Feline Infectious Peritonitis Type 2 corona virus; settings: for FIP-2 Titer / % Reduction / Reduction in Titer: 300 seconds exposure; for FIP-2 Titer: control titer 6.70 logs/ml
From the text: (§1) Untreated virus served as controls. […] They were then observed microscopically for CPE inhibition, reporting titers as TCID 50/ml, also expressed as plaque forming units (pfu's). The corrected virus titer (# positives×dilution) is reported in log/ml. Virucidal activity is thus defined as the number of logs reduction of virus titer between the test article and the control (Reed and Muench, Am. J. Hyg. 27:493-497, 1938).

[2] = tested on: CrFK cell culture; assay: Cell toxicity / cytopathic effect on host cells in the FIP-2 corona virus test; format: cell-based
From the text: as §1

[3] = tested on: influenza A/Equi 2?Miami 1/63, ATCC VR517; assay: Virucidal assay: influenza virus exposed to CPC solutions, titrated in MDCK cell culture (Reed and Muench); format: cell-based, Orthomyxoviridie virus (influenza A/Equi 2)
[4] = tested on: MDCK (NBL-2)5 (ATCC type CCL-34) cell culture
[5] = tested on: FeLV retrovirus; settings: for reduction in the viral titer: 300 seconds, titer 6.0 logs/ml
Experimental: (§2) FeLV retrovirus was gown in cell culture to a titer of 6.0 logs/ml.
(§3) Briefly, virus suspensions were exposed to three concentrations of CPC, 0.025%, 0.05%, and 0.10%, for 300 seconds. Untreated virus served as controls. At the end of the exposure, the virus was titrated in CrFK cell culture. Viral titration was accomplished at each test article concentration by seeding 0.1 ml of a serial dilution of treated virus to the CrFK cell culture. Serial dilutions were prepared from 10^−1 to 10^−8 of the original virus concentration, or five million/ml (6.7 log units) and each dilution then placed in each of four wells (replicates) of a 96 well microplate. The inoculated cells (80 μl per well) are then incubated at 37° C. in a CO2 incubator for five days.

[6] = tested on: CrFK (ATCC type CCL-94) cell culture; assay: Cytotoxicity of CPC in the FeLV test
Experimental: as §2, §3

[7] = pH of acid solutions; format: physicochemical; settings: at 0.1%

In the case of `CCCCCCCCCCCCCCCC[n+]1ccccc1` [CPC, Cetylpyridinium chloride], the “FIP-2 Titer” value ([1]; CPC 0.025%) is reported as 3.30 logs/ml, the “% Reduction” value ([1]; CPC 0.05%) is reported as 99.97% and the “Reduction in Titer” value ([1]; CPC 0.05%) is reported as greater than 3.20 logs. For the same compound, the “FIP-2 Titer” value ([1]; CPC 0.05%) was less than 3.50 logs/ml, the “% Reduction” value ([1]; CPC 0.10%) was 99.97% and the “Reduction in Titer” value ([1]; CPC 0.10%) was greater than 3.20 logs. The “FIP-2 Titer” value ([1]; CPC 0.10%) was less than 3.50 logs/ml, the adverse cytopathic effects ([2]; 0.025% in solution, five minutes) was “without adverse cytopathic effects” and the “reduction to the virus titers” value ([3]; 0.025% (weight/volume) CPC with 0.1% citric acid (weight/volume)) was “greater than 3.5 log”. For the same compound, the “reduction to the virus titers” value ([3]; 0.05% (weight/volume) CPC with 0.1% citric acid (weight/volume)) was “greater than 3.5 log”, the cytotoxic affects ([4]; test solutions containing 0.025% CPC and 0.1% citric acid) was “no observed cytotoxic affects” and the “reduction in the viral titer” value ([5]; CPC 0.025% in conjunction 0.1% citric acid) was “greater than 3.5 logs/ml”. For the same compound, the “reduction in the viral titer” value ([5]; CPC 0.025% without citric acid) was “greater than 3.5 logs/ml”, the “reduction of the FeLV virus” value ([5]; all three levels of CPC (0.025%, 0.05%, 0.10%) with or without citric acid at 0.1%) was 100% and the cytotoxic ([6]; CPC 0.025%) was “not cytotoxic”. For the same compound, the cytotoxic ([6]; CPC 0.05%) was “cytotoxic” and the cytotoxic ([6]; CPC 0.1%) was “cytotoxic”.

With `Oc1cc(Cl)ccc1Oc1ccc(Cl)cc1Cl` [Triclosan, triclosan] the viral reduction ([1]; all three levels (0.025%, 0.05%, 0.10%)) was “no viral reduction” and the cellular toxicity ([2]; three concentrations as employed with CPC (0.025%, 0.05%, 0.10%)) was “cellular toxicity at all three levels”.

With `CC(=O)O` [acetic acid] the pH [7] was 2.3.

For `O=C(O)CC(O)(CC(=O)O)C(=O)O` [citric acid], the pH [7] was 2.3 and the cytotoxic ([4]; acid solution at 0.1%) was “neither solution was cytotoxic”.
